Our source for the Kd values is article PMC8705394, “Acquired Drug Resistance Enhances Imidazoquinoline Efflux by P-Glycoprotein” (Pharmaceuticals, 2021).

The target in assay [1] is T1, P-glycoprotein 1 (P-gp, hMDR1) (Homo sapiens, UniProt P08183).
T1 construct: gene ABCB1
In words: vanadate-sensitive ATPase activation in P-gp membrane vesicles (PREDEASY kit); supported by Rh123 competition in MDR cells.

Assay [2] has as its target T1, P-glycoprotein 1 (P-gp, hMDR1). Kind of assay: biochemical.

T1 sequence (P08183 whole entry): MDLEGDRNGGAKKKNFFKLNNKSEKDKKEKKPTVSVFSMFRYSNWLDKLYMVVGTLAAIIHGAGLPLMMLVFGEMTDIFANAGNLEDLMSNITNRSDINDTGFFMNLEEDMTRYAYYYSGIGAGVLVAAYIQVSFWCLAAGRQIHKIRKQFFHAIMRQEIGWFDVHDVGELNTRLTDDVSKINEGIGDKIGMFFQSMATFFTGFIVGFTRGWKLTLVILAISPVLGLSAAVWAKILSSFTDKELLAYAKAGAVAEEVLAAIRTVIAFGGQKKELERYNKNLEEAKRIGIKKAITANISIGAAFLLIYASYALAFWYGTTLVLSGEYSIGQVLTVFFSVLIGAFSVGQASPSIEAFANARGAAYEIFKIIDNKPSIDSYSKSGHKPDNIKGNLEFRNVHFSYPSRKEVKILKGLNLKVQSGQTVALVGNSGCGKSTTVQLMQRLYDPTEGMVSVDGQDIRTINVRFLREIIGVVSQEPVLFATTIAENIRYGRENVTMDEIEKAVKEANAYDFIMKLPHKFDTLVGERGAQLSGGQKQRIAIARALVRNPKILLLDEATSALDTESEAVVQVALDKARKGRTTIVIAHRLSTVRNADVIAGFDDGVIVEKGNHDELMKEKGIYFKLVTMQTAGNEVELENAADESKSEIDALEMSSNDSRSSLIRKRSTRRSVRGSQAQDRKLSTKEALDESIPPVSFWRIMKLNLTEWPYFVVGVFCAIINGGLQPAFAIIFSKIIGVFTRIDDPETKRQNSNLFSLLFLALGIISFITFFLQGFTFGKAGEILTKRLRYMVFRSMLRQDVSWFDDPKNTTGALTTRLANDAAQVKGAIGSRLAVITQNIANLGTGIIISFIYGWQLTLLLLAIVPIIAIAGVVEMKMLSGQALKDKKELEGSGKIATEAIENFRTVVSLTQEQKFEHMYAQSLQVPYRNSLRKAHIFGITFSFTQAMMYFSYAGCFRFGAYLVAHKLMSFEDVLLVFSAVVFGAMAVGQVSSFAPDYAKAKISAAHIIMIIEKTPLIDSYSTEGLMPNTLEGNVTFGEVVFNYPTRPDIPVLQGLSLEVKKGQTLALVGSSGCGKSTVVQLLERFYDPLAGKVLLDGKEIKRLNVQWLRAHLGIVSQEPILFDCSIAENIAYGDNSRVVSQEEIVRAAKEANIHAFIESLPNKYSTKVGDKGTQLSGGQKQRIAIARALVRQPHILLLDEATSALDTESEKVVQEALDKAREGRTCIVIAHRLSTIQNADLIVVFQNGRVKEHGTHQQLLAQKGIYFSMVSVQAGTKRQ

In general, Kd refers to the free concentration of one partner at which half of the binding sites on the other are occupied at equilibrium, for simple one-to-one binding. A low value points to a tighter complex. In assay [1], `CC(C)Cn1cnc2c(N)nc3ccccc3c21` [IMQ, Imiquimod] came in with a Kd of 7.66 µM. Turning to `CCOCc1nc2c(N)nc3ccccc3c2n1CC(C)(C)O` [RSQ, Resiquimod], binding in assay [2] was characterised by a dissociation constant (Kd) of 24.4 µM.
